The values that follow are results of earlier work, collected in EP2007386B1, “CAMPTOTHECIN-ANALOG WITH A NOVEL, FLIPPED LACTONE-STABLE, E-RING AND METHODS FOR MAKING AND USING SAME” (BIONUMERIK PHARMACEUTICALS, INC., priority 2006, dated 2007).

Each structure is given as a SMILES string. Entries after “also recorded” stand apart in the source; their conditions may differ. Like-named read-outs stand apart in the source and are kept apart here.

For series [1] the following is noted: for Non-Hematologic Toxicity No. of Patients With: Cystitis / Non-Hematologic Toxicity No. of Patients With: Diarrhea: 5-day Course; for Number of Patients with Non-Hematologic Toxicity: Cystitis / Number of Patients with Non-Hematologic Toxicity: Diarrhea: Single-Dose Method.
Series [2] concerns advanced malignant melanoma. The following applies: fifteen patients, 90-360 mg/m^2 repeated every 2 weeks.
Experiment in series [3]: not given
The source holds these as a separate data set.

The test system of another series is angiogenesis. The following applies: mice cornea model; dose levels of 210 mg/kg.
The conditions of series [4]: clinical studies in Japan alone.
For series [5] the following is noted: et al.
Setting [6] is: 15 mg/m^2x5, 9 patients treated.
Setting [7] is: 17 mg/m^2x5, 5 patients treated.
Setting [8] is: 20 mg/m^2x5, 10 patients treated.
Where [9] appears, read: 5-Day Course (27 Patients Total), 4 wks.
Setting [10] is: 5-Day Course (27 Patients Total), 8 wks.
The mark [11] stands for this setting: 5-Day Course (27 Patients Total), 12 wks.
Setting [12] is: Single-Dose Method (34 Patients Total), 3 wks.
Setting [13] is: Single-Dose Method (34 Patients Total), 6 wks.
[14] abbreviates: Single-Dose Method (34 Patients Total), 9 wks.
Setting [15] is: Single-Dose Method (34 Patients Total), 12 wks.
[16] abbreviates: Rothenberg, 90mg QWx 4 Q42 days, 32 pts, 180mg/m^2/wk (50-180).

Take `CC[C@@]1(O)C(=O)OCc2c1cc1n(c2=O)Cc2cc3ccccc3nc2-1` [CPT sodium]: in series [1] (5-Day Course, 27 patients, P<0.05), the “Cystitis, 5-Day Course (% of 27 Patients)” value is 48 (P<0.05) %. In addition, the “Non-Hematologic Toxicity No. of Patients With: Cystitis” value in series [1] (11 mg/m^2x5, 2 patients treated) is given as 1; in series [1] (setting [6]), 4; in series [1] (setting [7]) it was 2; in series [1] (setting [8]), 6. For the same molecule, the “Non-Hematologic Toxicity No. of Patients With: Diarrhea” value is 1 in series [1] (setting [6]); 4 in series [1] (setting [7]); 4 in series [1] (setting [8]); 1 in series [1] (22 mg/m^2x5, 1 patient treated). Moreover, the “Cystitis, Single Dose (% of 34 Patients)” value in series [1] (Single Dose, 34 patients) is recorded as 24%. Besides, the “Number of Patients with Non-Hematologic Toxicity: Cystitis” value is given as 2 in series [1] (100 mg/m^2, 6 patients treated); 1 in series [1] (110 mg/m^2, 2 patients treated); 2 in series [1] (120 mg/m^2, 7 patients treated); 3 in series [1] (180 mg/m^2, 9 patients treated). The “Number of Patients with Non-Hematologic Toxicity: Diarrhea” value is listed as 1 in series [1] (110 mg/m^2, 2 patients treated); 4 in series [1] (120 mg/m^2, 7 patients treated); 2 in series [1] (180 mg/m^2, 9 patients treated). In addition, under “doses of 20 to 30 mg/m^2, fifteen patients, intravenous push”, the “patients with dose limiting bladder toxicity” value is “three”. Also, the “additional patients with bladder toxicity” value (doses of 30 and 44 mg/m^2) was “two”. For the same molecule, the clinical benefit result (eight patients with measurable disease, 5-day courses at dose levels associated with toxicity) is given as “No clinical benefit”. In addition, the “Objective Results: Stable (patients)” value with gastrointestinal cancer (setting [9]) is on record as 12; in the series on gastrointestinal cancer (setting [10]), 7; in the series with gastrointestinal cancer (setting [11]), 6; in the series with gastrointestinal cancer (setting [12]), 17; in the series with gastrointestinal cancer (setting [13]) it was 11; with gastrointestinal cancer (setting [14]), 8. For the same molecule, in the series with gastrointestinal cancer (setting [15]), the “Objective Results: Stable (patients)” value was 6. Also, the “Objective Results: Worse (patients)” value with gastrointestinal cancer (setting [9]) is 14; in the series on gastrointestinal cancer (setting [10]) it was 20; with gastrointestinal cancer (setting [11]), 21; in the series on gastrointestinal cancer (setting [12]), 13; in the series with gastrointestinal cancer (setting [13]), 21; in the series with gastrointestinal cancer (setting [14]) it was 24. Further, the “Objective Results: Worse (patients)” value with gastrointestinal cancer (setting [15]) was 28. Besides, the “Objective Results: Improved (patients)” value was 1 in the series on gastrointestinal cancer (5-Day Course (27 Patients Total), 4 wks after start of therapy); 4 in the series on gastrointestinal cancer (Single-Dose Method (34 Patients Total), 3 wks after start of therapy); 2 in the series with gastrointestinal cancer (setting [13]); 2 with gastrointestinal cancer (setting [14]). The “patients with evidence of partial objective improvement” value with gastrointestinal cancer (after 2 months (8 or 9 weeks), of 61 patients) was “two”. The “patients who showed improvement” value in the series on gastrointestinal cancer (at 3 months, of 61 patients) was “none”. Also, the “patients with less pronounced transient tumor regression” value in series [2] is reported as “three”. The patients with myelosuppression in series [2] is recorded as 11. In series [2] (rapid IV injection), the “patients with a 50% or greater decrease in tumor diameter” value is “None”.
For `CC[C@@]1(O)C(=O)OCc2c1cc1n(c2=O)Cc2cc3ccccc3nc2-1` [CPT, (S)-4-Ethyl-4-hydroxy-1 H-pyrano[3',4':6,7]indolizino[1,2-b]quinoline-3,14(4H,12H)-dione], the “mean urine recovery of CPT” value in series [3] (excluding the five patients with impaired excretion) was 22.8%; in series [3] (over the first 48 hours, IV camptothecin sodium 0.5 to 10.0 mg/kg), 17.4%.
Consider `CCc1c2c(nc3ccc(OC(=O)N4CCC(N5CCCCC5)CC4)cc13)-c1cc3c(c(=O)n1C2)COC(=O)[C@]3(O)CC` [CPT-11, 7-ethyl-10-[4-(1-piperidino)-1-piperidino]carbonyloxycamptothecin], for which the effect on neovascularization entry in the series with angiogenesis is “significant reduction of neovascularization”. Also, in series [4], the “patient deaths directly attributable to drug toxicity” value is “approximately 100”. The “Tumor Type (responses)” value is “Breast (1 PR); also recorded: Mesothelioma” in series [5] (Clavel, 90 min. QDx 3 Q21 Days, 37 pts, 115mg/m^2/d (33-115)); “Esophagus; also recorded: (1 PR) cervix; also recorded: (1 PR) renal; also recorded: (1 PR) Ovarian” in series [5] (Culine, 90 min. Q21 days, 59 pts, 150mg/m^2/wk (50-150)); “NS CLC (2 PRs)” in series [5] (Negoro, 30 min Infusion Weekly, 17 pts, 100mg/m^2 (50-150)); “None” in series [5] (Ohe, 120 hr CI Q3wks, 36 pts, 40mg/m^2/d (5-40)); “Colon Ca” in series [5] (setting [16]); “Colon Cancer (1 PR); also recorded: Cervix Ca” in series [5] (Rowinsky, 90 min Infusion Q21 day, 32 pts, 240mg/m^2 (100-345)). Besides, the Toxicity entry is “Neutropenia*; also recorded: diarrhea,; also recorded: vomiting,” in series [5] (Clavel, 90 min. QDx 3 Q21 Days, 37 pts, 115mg/m^2/d (33-115), * = Dose Limiting Toxicity); “Fatigue; also recorded: Stomatitis; also recorded: Neutropenia*; also recorded: diarrhea*; also recorded: vomiting,; also recorded: Alopecia” in series [5] (Culine, 90 min. Q21 days, 59 pts, 150mg/m^2/wk (50-150), * = Dose Limiting Toxicity); “neutropenia* and diarrhea* and N/V and alopecia, and Liver” in series [5] (Negoro, 30 min Infusion Weekly, 17 pts, 100mg/m^2 (50-150), * = Dose Limiting Toxicity); “diarrhea*; also recorded: thrombocytopenia; also recorded: Anemia” in series [5] (Ohe, 120 hr CI Q3wks, 36 pts, 40mg/m^2/d (5-40), * = Dose Limiting Toxicity); “neutropenia,; also recorded: vomiting,; also recorded: Alopecia” in series [5] (setting [16]); “Neutropenia*; also recorded: vomiting,; also recorded: diarrhea; also recorded: pain, flushing” in series [5] (Rowinsky, 90 min Infusion Q21 day, 32 pts, 240mg/m^2 (100-345), * = Dose Limiting Toxicity).
